Experimental data from PubChem BioAssay AID1845210 (Molecular Pharmacology Branch, DTP, NCI, 2023).
“And” between values parts separate entries of the source, which are not always exact repeats. Identical values can stand only once.

System: NCI-H226 complex tumor spheroids, viability
Test: Anticancer human tumor NCI-H226 cell line growth inhibition;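 note: spheroids exposed to compound for 7 days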;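 for viability, T/C: 100% = DMSO vehicle control viability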
Conditions: for viability, T/C: stronger effect = lower value
Text: Multicellular complex tumor spheroid response to DNA repair inhibitors in combination with DNA-damaging drugs
This study explores the anticancer activities of DNA-damaging drugs and inhibitors of DNA damage repair, both as single agents and in combinations. Complex tumor spheroids comprised of malignant cells, endothelial cells and mesenchymal stem cells served as an in vitro model for human solid tumors. This model system incorporates physiologically relevant features and patient-derived or established malignant cell lines with clinically relevant genetic alterations from many tumor types. Twenty-six patient-derived or established malignant cell lines were evaluated representing sarcoma, melanoma, small cell lung cancer (SCLC), non-small cell lung cancer (NSCLC), as well as bladder, ovarian and pancreatic cancers. The concentration ranges selected for each drug and investigational agent were based upon clinically achievable concentrations if the clinical Cmax of the agent was known.
Compounds. The drugs and compounds olaparib (NSC753686), talazoparib (NSC767125), berzosertib (NSC777718), elimusertib (NSC800525), nedisertib (NSC802822), VX-984 (NSC792969), AZD-1390 (NSC803789), temozolomide (NSC362856), topotecan (NSC609699), trabectedin (NSC813783), staurosporine (NSC755774), and gemcitabine (NSC613327) were obtained from the National Cancer Institute (NCI) Developmental Therapeutics Program Chemical Repository. The FDA-approved anticancer drug set is available from the Developmental Therapeutics Program at https://dtp.cancer.gov/organization/dscb/obtaining/available_plates.htm. […] The stock solutions were prepared in dimethyl sulfoxide (DMSO, Sigma-Aldrich, St. Louis, MO, cat. D2650) at 400-fold the tested concentration and stored at -70 degrees C. Prior to their use, the stock solutions were diluted in fresh medium and the final DMSO concentration in the assay was 0.25% (v/v). All drugs and investigational agents were tested over a range starting from a high concentration at or near the clinical Cmax and decreasing in half-log increments. If the clinical Cmax for an agent had not been determined, the highest concentration tested was 10 microM.
Cell Lines. The patient-derived cancer cell (PDC) lines: 156681-154-R-J1-PDC, 283228-195-R-J1-PDC, 287954-098-R-J1-PDC, 292921-168-R-J2-PDC, 349418-098-R-PDC, 425362-245-T-J1-PDC, 556581-035-R-J1-PDC, and BL0293-F563-PDC were received from the NCI Patient-Derived Models Repository (PDMR, https://pdmr.cancer.gov). The established cell lines HS-SY-2 (RRID:CVCL_8719), MPNST, and SYO-1 (RRID:CVCL_7146) were obtained from the Sloan Kettering Institute. The alveolar soft parts sarcoma cell line ASPS-1 (RRID:CVCL_S738) was established at the NCI and grown from internal seed stocks. The following established cell lines were purchased from the American Type Culture Collection (ATCC, Manassas, VA): G-401 (ATCC, cat. CRL-1441, RRID:CVCL_0270), SW982 (ATCC, cat. HTB-93, RRID:CVCL_1734), VA-ES-BJ (ATCC, cat. CRL-2138, RRID:CVCL_1785), NCI-H719 (ATCC, cat. CRL-5837, RRID:CVCL_1582), NCI-H196 (ATCC, cat. CRL-5823, RRID:CVCL_1509), NCI-H841 (ATCC, cat. CRL-5845, RRID:CVCL_1595), NCI-H1618 (ATCC, cat. CRL-5879, RRID:CVCL_1480), NCI-H1876 (ATCC, cat. CRL-5902, RRID:CVCL_1503), DMS 114 (ATCC, cat. CRL-2066; RRID:CVCL_1174), NCI-H211 (ATCC, cat. CRL-5824; RRID:CVCL_1529), and SW 1271 (ATCC, cat. CRL-2177, RRID:CVCL_1716). The small cell lung cancer cell line COR-L88 was purchased from Sigma-Aldrich (cat. 92031917-1VL, RRID:CVCL_1141). The non-small cell lung cancer cell lines NCI-H226 (RRID:CVCL_1544) and NCI-H322M (RRID:CVCL_1557) were established at the NCI and grown from internal seed stocks. Pooled donor human umbilical vein endothelial cells (HUVEC, Lonza, cat. CC-2519) and human mesenchymal stem cells (hMSC, Lonza, cat. PT-2501) were purchased from Lonza (Walkersville, MD).
Cell Culture. All cells were maintained in an incubator at 37 degrees C and 5% CO2 with 95% humidity. […]

[1] = curve of first compound, second compound 30 pM
[2] = curve of first compound, second compound 94.9 pM
[3] = curve of first compound, second compound 0.0003 µM
[4] = curve of first compound, second compound 0.000949 µM
[5] = curve of first compound, second compound 0.003 µM

`COc1ccc([C@@H](O)c2cc(-c3ncnc4cc(N5CCOCC5)ccc34)c(F)cc2Cl)nn1` + COc1cc2c(cc1O)CCNC21CSC2c3c(OC(C)=O)c(C)c4c(c3C(COC1=O)N1C(O)C3Cc5cc(C)c(OC)c(O)c5C(C21)N3C)OCO4 gave an IC50 [1] of 6.37 µM, an IC50 [2] of 4.02 µM and an IC50 [3] of 4.26 µM. The IC50 [4] was 0.756 µM, the IC50 [5] was under 0.0316 µM and the viability, T/C (second compound 30 pM, first compound 0.0316 µM) was 115%. The viability, T/C (second compound 30 pM, first compound 0.1 µM) was 108%, the viability, T/C (second compound 30 pM, first compound 0.316 µM) was 81.2% and the viability, T/C (second compound 30 pM, first compound 1 µM) was 80.5%. For the same compound, the viability, T/C (second compound 30 pM, first compound 3.16 µM) was 58%, the viability, T/C (second compound 30 pM, first compound 10 µM) was 43.6% and the viability, T/C (second compound 94.9 pM, first compound 0.0316 µM) was 99.8%. It also gave a viability, T/C (second compound 94.9 pM, first compound 0.1 µM) of 105%, a viability, T/C (second compound 94.9 pM, first compound 0.316 µM) of 106% and a viability, T/C (second compound 94.9 pM, first compound 1 µM) of 76.5%. For the same compound, the viability, T/C (second compound 94.9 pM, first compound 3.16 µM) was 54.6%, the viability, T/C (second compound 94.9 pM, first compound 10 µM) was 43.5% and the viability, T/C (second compound 0.0003 µM, first compound 0.0316 µM) was 126%. The viability, T/C (second compound 0.0003 µM, first compound 0.1 µM) was 130%, the viability, T/C (second compound 0.0003 µM, first compound 0.316 µM) was 122% and the viability, T/C (second compound 0.0003 µM, first compound 1 µM) was 95.4%. For the same compound, the viability, T/C (second compound 0.0003 µM, first compound 3.16 µM) was 54.7%, the viability, T/C (second compound 0.0003 µM, first compound 10 µM) was 37.5% and the viability, T/C (second compound 0.000949 µM, first compound 0.0316 µM) was 107%. For the same compound, the viability, T/C (second compound 0.000949 µM, first compound 0.1 µM) was 112%, the viability, T/C (second compound 0.000949 µM, first compound 0.316 µM) was 93.6% and the viability, T/C (second compound 0.000949 µM, first compound 1 µM) was 36.4%. It also gave a viability, T/C (second compound 0.000949 µM, first compound 3.16 µM) of 0.51%, a viability, T/C (second compound 0.000949 µM, first compound 10 µM) of 0.24% and a viability, T/C (second compound 0.003 µM, first compound 0.0316 µM) of 1.01%. For the same compound, the viability, T/C (second compound 0.003 µM, first compound 0.1 µM) was 0.79%, the viability, T/C (second compound 0.003 µM, first compound 0.316 µM) was 0.98% and the viability, T/C (second compound 0.003 µM, first compound 1 µM) was 0.69%. For the same compound, the viability, T/C (second compound 0.003 µM, first compound 3.16 µM) was 0.74% and the viability, T/C (second compound 0.003 µM, first compound 10 µM) was 1.08%.
With `Cc1sc2c(c1C)C(c1ccc(Cl)cc1)=NC(CC(=O)Nc1ccc(O)cc1)c1nnc(C)n1-2` (stereo unspecified) the viability, T/C (compound 0.00949 µM) was 80.2% and 99.2% and 85.2%, the viability, T/C (compound 0.03 µM) was 72.7% and 73.6% and 78.2% and the viability, T/C (compound 0.0949 µM) was 79.5% and 64.3% and 96.1%. The viability, T/C (compound 0.3 µM) was 57.7% and 57.8% and 77.4%, the viability, T/C (compound 0.949 µM) was 47.1% and 50.4% and 73.6% and the viability, T/C (compound 3 µM) was 38.5% and 49.4% and 63.2%. The IC50 (curve of compound) was 0.592 µM and > 3 µM.
With `COc1ccc([C@@H](O)c2cc(-c3ncnc4cc(N5CCOCC5)ccc34)c(F)cc2Cl)nn1` the viability, T/C (compound 0.0316 µM) was 96.6% and 91% and 98.2%, the viability, T/C (compound 0.1 µM) was 93.2% and 99.9% and 94.4% and the viability, T/C (compound 0.316 µM) was 89.3% and 96.3% and 93.6%. The viability, T/C (compound 1 µM) was 80.3% and 71.2% and 82.1%, the viability, T/C (compound 3.16 µM) was 54.6% and 52.2% and 55.1% and the viability, T/C (compound 10 µM) was 39.5% and 35.6% (2×). For the same compound, the IC50 (curve of compound) was 4.63 µM and 3.04 µM and 4.29 µM.
With `[2H]c1nc(C)nc([2H])c1-c1cc(NC[C@@H](C)c2cccc3c(C(=O)NC)ccnc23)ncn1` the viability, T/C (compound 0.0316 µM) was 93.8% and 95.7% and 112%, the viability, T/C (compound 0.1 µM) was 101% and 95.3% and 97.7% and the viability, T/C (compound 0.316 µM) was 103% and 106% and 88.5%. For the same compound, the viability, T/C (compound 1 µM) was 107% and 106% and 93.5%, the viability, T/C (compound 3.16 µM) was 101% and 99.3% and 88.1% and the viability, T/C (compound 10 µM) was 111% and 114% and 106%. The IC50 (curve of compound) was over 10 µM.
In the case of `Cn1ncnc1[C@H]1c2n[nH]c(=O)c3cc(F)cc(c23)N[C@@H]1c1ccc(F)cc1` + COc1cc2c(cc1O)CCNC21CSC2c3c(OC(C)=O)c(C)c4c(c3C(COC1=O)N1C(O)C3Cc5cc(C)c(OC)c(O)c5C(C21)N3C)OCO4, the IC50 [1] is reported as over 3 µM, the IC50 [2] is reported as over 3 µM and the IC50 [3] is reported as over 3 µM. The IC50 [4] was over 3 µM, the IC50 [5] was 0.157 µM and the viability, T/C (second compound 30 pM, first compound 0.00949 µM) was 90%. For the same compound, the viability, T/C (second compound 30 pM, first compound 0.03 µM) was 103%, the viability, T/C (second compound 30 pM, first compound 0.0949 µM) was 106% and the viability, T/C (second compound 30 pM, first compound 0.3 µM) was 92.8%. It also gave a viability, T/C (second compound 30 pM, first compound 0.949 µM) of 91.3%, a viability, T/C (second compound 30 pM, first compound 3 µM) of 111% and a viability, T/C (second compound 94.9 pM, first compound 0.00949 µM) of 103%. It also gave a viability, T/C (second compound 94.9 pM, first compound 0.03 µM) of 101%, a viability, T/C (second compound 94.9 pM, first compound 0.0949 µM) of 104% and a viability, T/C (second compound 94.9 pM, first compound 0.3 µM) of 102%. For the same compound, the viability, T/C (second compound 94.9 pM, first compound 0.949 µM) was 101%, the viability, T/C (second compound 94.9 pM, first compound 3 µM) was 110% and the viability, T/C (second compound 0.0003 µM, first compound 0.00949 µM) was 122%. The viability, T/C (second compound 0.0003 µM, first compound 0.03 µM) was 100%, the viability, T/C (second compound 0.0003 µM, first compound 0.0949 µM) was 113% and the viability, T/C (second compound 0.0003 µM, first compound 0.3 µM) was 119%. For the same compound, the viability, T/C (second compound 0.0003 µM, first compound 0.949 µM) was 119%, the viability, T/C (second compound 0.0003 µM, first compound 3 µM) was 113% and the viability, T/C (second compound 0.000949 µM, first compound 0.00949 µM) was 79.2%. The viability, T/C (second compound 0.000949 µM, first compound 0.03 µM) was 76.2%, the viability, T/C (second compound 0.000949 µM, first compound 0.0949 µM) was 71.1% and the viability, T/C (second compound 0.000949 µM, first compound 0.3 µM) was 93.3%. The viability, T/C (second compound 0.000949 µM, first compound 0.949 µM) was 87.1%, the viability, T/C (second compound 0.000949 µM, first compound 3 µM) was 76.2% and the viability, T/C (second compound 0.003 µM, first compound 0.00949 µM) was 53.1%. The viability, T/C (second compound 0.003 µM, first compound 0.03 µM) was 70.3%, the viability, T/C (second compound 0.003 µM, first compound 0.0949 µM) was 85.7% and the viability, T/C (second compound 0.003 µM, first compound 0.3 µM) was 24.9%. It also gave a viability, T/C (second compound 0.003 µM, first compound 0.949 µM) of 20.6% and a viability, T/C (second compound 0.003 µM, first compound 3 µM) of 0.42%.
